Literature values in patent publication US11844805B2, “Formulations of testosterone and methods of treatment therewith” (BOARD OF REGENTS, THE UNIVERSITY OF TEXAS SYSTEM, priority 2014, dated 2023).

How the values were obtained:
[1] = women, single dose, sublingual
[2] = intranasal administration; baseline mean 2.5 pmol/L

C[C@]12CC[C@H]3[C@@H](CCC4=CC(=O)CC[C@@]43C)[C@@H]1CC[C@@H]2O [testosterone]
effect on subjective sexual desire, genital responsiveness and genital arousal [1]: increase subjective sexual desire, genital responsiveness, and genital arousal
maximum testosterone concentration (mean) [2]: 168.2 pmol/L
